Measured values from article PMC7922564, “Molecular Insights into an Antibiotic Enhancer Action of New Morpholine-Containing 5-Arylideneimidazolones in the Fight against MDR Bacteria” (International Journal of Molecular Sciences, 2021).
Values joined by “and” are separate entries in the source; they are usually repeats but may differ in a detail not shown here. Equal entries are not always repeated. Where two headings read alike, the source gives them in different places.

What was measured:
[1] = tested on: K. aerogenes Ea-289; assay: MIC reduction assay (antibiotic adjuvant), K. aerogenes Ea-289; format: cell-based, Klebsiella aerogenes;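 further: compound at no more than one quarter of its own MIC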
Experimental: At first, MIC values of compounds were determined (Table S15, Supplementary). Next, their abilities to reduce MICs of the AcrAB-TolC substrates doxycycline (a tetracycline-class antibiotic) and erythromycin were studied (Table S16, Supplementary).
(§1) A subset of compounds, namely 7, 12–16, 19, 20, was also examined for the potential to increase the effectiveness of the antibiotics chloramphenicol, erythromycin, doxycycline, and the fluoroquinolone antibiotic norfloxacin, which all are substrates for AcrAB-TolC in K. aerogenes. In addition to strain Ea-289, the adjuvant-like effect of the compounds was investigated in strain CM-64, which also overexpresses the AcrAB-TolC efflux pump, although it has no changes in porin content, and in the Ea-289 derivatives, i.e., Ea-294 and Ea-308, which are devoid of AcrAB (Table S17, Supplementary).
(§2) Initially, MICs of a series of imidazolone derivatives were assessed against susceptible (reference) and MDR strains of staphylococci. Next, MIC values of the aforementioned antibiotics were determined in the absence and presence of imidazolone derivatives to assess the chemosensitizing effect of these compounds. […] 5-arylideneimidazolones and 5-arylidenethiazolones, which precipitated after addition to bacterial suspension in MH II medium, were tested at the highest concentrations at which precipitation was not observed. […] Antibacterial activity of compounds and antibiotics ampicillin, vancomycin, ciprofloxacin, and erythromycin was recorded as the lowest concentration of molecules able to inhibit bacterial growth after 18 h incubation at 37 °C. The incubation of bacterial strains exposed to oxacillin paired with compounds tested was conducted at 35 °C and extended to 24 h due to frequent occurrence of heterogeneity among MRSA strains. The results are presented as activity gain (A) parameter which was calculated as ratio of MIC of a certain antibiotic (MICAnt) to its MICAnt+Comp, observed in combination with a tested compound (7, 12–16, 19, or 20; Equation (1)). (1) A=(MICAnt/MICAnt+Comp)
(§3) MIC values of 5-arylideneimidazolone derivatives were determined following CLSI recommendations as in the methods described for S. aureus (Section 3.3.1).

[2] = tested on: MRSA 19449; assay: MIC determination (microdilution), MRSA 19449; format: cell-based, Staphylococcus aureus; conditions: Staphylococcus aureus, MRSA, no precipitation
Experimental: (§4) Determination of MIC values, i.e., intrinsic antibacterial activity, of products and antibiotics (oxacillin, ampicillin, vancomycin, ciprofloxacin, and erythromycin) in the presence and absence of compounds tested was conducted by the use of a standard 2-fold microdilution method in cation-adjusted Mueller Hinton broth following the Clinical and Laboratory Standards Institute (CLSI) guidelines. The MIC values were detected using an Infinite M200 pro Tecan microplate reader (Tecan® France, SA-Lyon, France). MIC determinations were conducted in 96-well microtiter plates and repeated 3–4 times.
as §2

[3] = tested on: S. aureus ATCC 25923; assay: MIC determination (microdilution), S. aureus ATCC 25923; format: cell-based, Staphylococcus aureus; conditions: Staphylococcus aureus, ATCC25923, unstarred values of column MIC value/no precipitation; read-out: MIC value
Experimental: as §4, §2

[4] = tested on: K. aerogenes Ea-289 (overexpression of AcrAB-TolC); assay: MIC of compounds, K. aerogenes Ea-289; format: cell-based; conditions: Klebsiella aerogenes
Experimental: At first, MIC values of compounds were determined (Table S15, Supplementary). Next, their abilities to reduce MICs of the AcrAB-TolC substrates doxycycline (a tetracycline-class antibiotic) and erythromycin were studied (Table S16, Supplementary). […]
as §4, §3

[5] = tested on: S. aureus ATCC 25923; design: method as in earlier work; conditions: published previously, cited from earlier work
[6] = tested on: AcrAB-TolC efflux pump in K. aerogenes strain Ea-289; design: method as in PMID 30691112; conditions: compound 100 µM; previously described; cited from earlier work
[7] = tested on: K. aerogenes CM-64; design: method as in earlier work; conditions: doxycycline, chloramphenicol, norfloxacin, already published, cited from earlier work
[8] = tested on: K. aerogenes Ea-294, Ea-308; design: method as in earlier work; conditions: doxycycline, chloramphenicol, norfloxacin, already published, cited from earlier work
[9] = tested on: K. aerogenes CM-64 (overexpression of AcrAB-TolC); assay: MIC of compounds, K. aerogenes CM-64; format: cell-based; conditions: Klebsiella aerogenes, read-out: Minimal Inhibitory Concentration (MIC)
From the text: as §1, §4, §3

[10] = tested on: K. aerogenes Ea-289; design: method as in earlier work; conditions: doxycycline, chloramphenicol, norfloxacin, already published, cited from earlier work
[11] = tested on: K. aerogenes Ea-294, Ea-308 (devoid of AcrAB); assay: MIC of compounds, K. aerogenes Ea-294, Ea-308; format: cell-based; conditions: Klebsiella aerogenes, read-out: Minimal Inhibitory Concentration (MIC)
From the text: as §1, §4, §3

[12] = tested on: S. aureus ATCC 25923; design: method as in earlier work; conditions: starred (*) value; published previously; cited from earlier work
[13] = Water solubility (UV spectroscopy); format: physicochemical
From the text: Six representatives of 5-arylideneimidazolones (9–12, 15, 19) were chosen for the determination of water solubility. UV spectroscopy was used for the estimation of concentrations of compounds according to the method described earlier. Acquired UV absorbance, calculated means, and standard deviations for tested compounds are presented in Supplementary Table S18. Solubility results, presented in Table 6, point out that compounds from the same group (A or B, Table 1 and Table 2) with the two-ring aromatic moiety are more soluble than compounds with the fluorene motive (Group A: 9, 10, 11 vs. 12; Group B: 15 vs. 19). […] The most soluble of tested compounds was compound 15, which could be dissolved in water at a concentration of up to 205.502 mM/L.
Water solubility was obtained using UV spectroscopy method. Absorbance of tested solutions of compounds 9-12, 15, and 19, respectively in suitable dilution, in three repetitions as well as calculated arithmetic means, solubility and standard deviations are presented in Table S18. the solubility results […]
Table S18. Results of absorbance used for estimation of water solubility of tested compounds (9-12, 15, 19).
Abbreviations: A1, A2,and A3, UV absorbance in first, second, and third repetition; Amean, arithmetic mean of absorbance from three repetitions; s, standard deviation for absorbance; S, water solubility; SD – standard deviation for solubility. […]

[14] = Stability in acidic and basic conditions (TLC); format: physicochemical; conditions: 1 = stable
Experimental: Compounds 9–12, 15, and 19 were also tested for their stability in acidic and basic conditions. This assay was carried out for 48 h and samples were taken at six-time intervals (10 min, 1 h, 2 h, 3 h, 24 h, 48 h). Stability of the compounds was determined using the TLC method. […] In basic conditions, only compounds 10 and 15 were stable for 24 h. […] Results with details, including time of degradation of products obtained, are presented in the Supplementary (Tables S19 and S20). […]
VI. Stability in different pH conditions
Stability of chosen compounds (9-12, 15, and 19) were determined using the TLC method. Assays were performed in acidic and basic conditions and were carried out for 48 h. Samples were taken at six-time intervals (10 min., 1 h, 2 h, 3 h, 24 h, 48 h). […]
of spots observed on TLC, where 1 indicate that compound is stable (only TLC spot for proper compound was observed). Higher values point out how many products of degradation was observed, which can be calculating by subtracting one from number of spots.
Table S19. Results of chosen compounds (9-12, 15, 19) stability in acidic conditions.
Compound Number of TLC spots in defined time
Table S20. Results of chosen compounds (9-12, 15, 19) stability in basic conditions.

[15] = read-out: MIC value/no precipitation

Cl.O=C1N=C(N2CCC(N3CCOCC3)CC2)S/C1=C\c1ccc2c(c1)Cc1ccccc1-2 [Compound 22, (Z)-5-((9H-Fluoren-2-yl)methylene)-2-(4-Morpholinopiperidin-1-yl)Thiazol-4-one Hydrochloride]
melting point: 244 to 246 °C
A (activity gain) ([1]; doxycycline): 1
A (activity gain) ([1]; erythromycin): 1
MIC [2]: 31.2 to 250 µM
MIC [3]: 62.5 µM
MIC [4, 15]: > 250 µM

Cl.NC1=N/C(=C\c2cccc3ccccc23)C(=O)N1CCCN1CCOCC1 [Compound 18, (Z)-5-(Naphthalen-1-ylmethylene)-2-Amino-3-(3-Morpholinopropyl)-Imidazol-4(5H)-one Hydrochloride]
melting point: 265 to 268 °C
A (activity gain) ([1]; doxycycline): 1
A (activity gain) ([1]; erythromycin): 1
MIC [2]: 2000 µM
MIC [3]: 1000 µM
MIC [4, 15]: > 250 µM

Cl.O=C1N=C(NCCCN2CCOCC2)S/C1=C\c1ccc2c(c1)Cc1ccccc1-2 [Compound 23, (Z)-5-((9H-Fluoren-2-yl)methylene)-2-((3-Morpholinopropyl)amino)Thiazol-4(5H)-one Hydrochloride]
melting point: 243 to 245 °C
A (activity gain) ([1]; doxycycline): 1
A (activity gain) ([1]; erythromycin): 1
MIC [2]: 31.2 to 250 µM
MIC [3]: 31.2 to 250 µM
MIC [4, 15]: > 62.5 µM

Cl.O=C1N=C(N2CCC(N3CCOCC3)CC2)N/C1=C\c1cccc2ccccc12 (hydrate or solvate) [Compound 11, (Z)-5-(Naphthalen-1-ylmethylene)-2-(4-Morpholinopiperidin-1-yl)-Imidazol-4(5H)-one Hydrochloride]
melting point: 244 to 249 °C

NC1=N/C(=C\c2c3ccccc3cc3ccccc23)C(=O)N1CCCN1CCOCC1 [Compound 20]
MIC reduction ([5]; oxacillin alone to oxacillin + compound): No effect
A (activity gain) ([5]; oxacillin): 1
MIC [2]: 31.2 to 250 µM
Inhibition efficiency (IE) towards extrusion of 1,2'-dNA [6]: 44%
MIC reduction ([7]; erythromycin + compound): No effect
A (activity gain) ([7]; erythromycin): 1
MIC [3]: 31.2 to 250 µM
MIC ([4]; read-out: Minimal Inhibitory Concentration (MIC)): > 2000 µM
MIC reduction ([8]; erythromycin + compound): No effect
A (activity gain) ([8]; erythromycin): 1
MIC [9]: > 2000 µM
MIC reduction ([10]; erythromycin + compound): No effect
A (activity gain) ([10]; erythromycin): 1
MIC [11]: 2000 µM
no precipitation: highest possible concentration of a compound (due to precipitation) at which growth of bacteria was observed [12]: 0.0625 mM

O=C1NC(N2CCC(N3CCOCC3)CC2)=N/C1=C\c1cccc(Oc2ccccc2)c1 [Compound 9]
solubility [13]: 1480 µg/mL and 3170 µM
A (activity gain) ([1]; doxycycline): 1
A (activity gain) ([1]; erythromycin): 1
MIC [2]: 31.2 to 250 µM
MIC [3]: 31.2 to 250 µM
MIC [4, 15]: > 250 µM
Number of TLC spots ([14]; acidic conditions, 10 min): 2
Number of TLC spots ([14]; acidic conditions, 1 h): 2
Number of TLC spots ([14]; acidic conditions, 2 h): 2
Number of TLC spots ([14]; acidic conditions, 3 h): 2
Number of TLC spots ([14]; acidic conditions, 24 h): 2
Number of TLC spots ([14]; acidic conditions, 48 h): 2
Number of TLC spots ([14]; basic conditions, 10 min): 2
Number of TLC spots ([14]; basic conditions, 1 h): 2
Number of TLC spots ([14]; basic conditions, 2 h): 2
Number of TLC spots ([14]; basic conditions, 3 h): 2
Number of TLC spots ([14]; basic conditions, 24 h): 2
Number of TLC spots ([14]; basic conditions, 48 h): 2
